Data taken from patent US20190135793A1, “HETEROCYCLIC INHIBITORS OF KDM5 FOR THE TREATMENT OF DISEASE” (Board of Regents, The University of Texas System, priority 2017, published 2019).
Where two headings read alike, the source gives them in different places.

How the values were obtained:
KDM5B = molecular target: T1, KDM5B (Homo sapiens, UniProt Q9UGL1); assay: biochemical
T1 construct: Full length of KDM5B and KDM4C protein were purchased from Active Motif; purchased Active Motif 31832
Procedure: (§1) KDM4C and KDM5B AlphaScreen Assay Material and Method
(§2) Compounds disclosed herein were (and can be) screened using the following assay.
Peptides used in all experiments were purchased from Anaspe. […] Final concentration of KDM5B and KDM4C used in the assay were 0.5 nM and 0.2 nM. Final concentration of peptides for 5B and 4C used in the assay were 3 nM.
(§3) 4 μL of KDM5B or KDM4C protein were added to 384-well OptiPlate by using multiflow, followed by 4 μl of either buffer or compound. Plates were sealed, spun down and incubated at RT for 15 min. 4 μl of biotinylated peptide was added to the plate, the plate was incubated at room temperature for 25 minutes (KDM5B) and 30 minutes (KDM4C) after sealed and spun down. Streptavidin donor beads and acceptor beads were diluted and mixed in the detection buffer with 7.5 mM EDTA, followed by adding 8 μl of acceptor and donor beads mix to the plate, before the plate was sealed and incubated at room temperature for 3 h or overnight at dark. The plate was read on Envision plate reader (PerkinElmer) using Alphascreen protocol. IC50s were calculated in GraphPad Prism 6.

KDM4C = molecular target: T2, KDM4C (Homo sapiens, UniProt Q9H3R0); assay: KDM4C AlphaScreen assay; assay type: biochemical; details: AlphaScreen; full length KDM4C 0.2 nM; biotinylated H3K9Me3 peptide 3 nM; 30 minutes at room temperature
T2 construct: Full length of KDM5B and KDM4C protein were purchased from Active Motif; purchased Active Motif 31858
T2 sequence (Q9H3R0 1-1056): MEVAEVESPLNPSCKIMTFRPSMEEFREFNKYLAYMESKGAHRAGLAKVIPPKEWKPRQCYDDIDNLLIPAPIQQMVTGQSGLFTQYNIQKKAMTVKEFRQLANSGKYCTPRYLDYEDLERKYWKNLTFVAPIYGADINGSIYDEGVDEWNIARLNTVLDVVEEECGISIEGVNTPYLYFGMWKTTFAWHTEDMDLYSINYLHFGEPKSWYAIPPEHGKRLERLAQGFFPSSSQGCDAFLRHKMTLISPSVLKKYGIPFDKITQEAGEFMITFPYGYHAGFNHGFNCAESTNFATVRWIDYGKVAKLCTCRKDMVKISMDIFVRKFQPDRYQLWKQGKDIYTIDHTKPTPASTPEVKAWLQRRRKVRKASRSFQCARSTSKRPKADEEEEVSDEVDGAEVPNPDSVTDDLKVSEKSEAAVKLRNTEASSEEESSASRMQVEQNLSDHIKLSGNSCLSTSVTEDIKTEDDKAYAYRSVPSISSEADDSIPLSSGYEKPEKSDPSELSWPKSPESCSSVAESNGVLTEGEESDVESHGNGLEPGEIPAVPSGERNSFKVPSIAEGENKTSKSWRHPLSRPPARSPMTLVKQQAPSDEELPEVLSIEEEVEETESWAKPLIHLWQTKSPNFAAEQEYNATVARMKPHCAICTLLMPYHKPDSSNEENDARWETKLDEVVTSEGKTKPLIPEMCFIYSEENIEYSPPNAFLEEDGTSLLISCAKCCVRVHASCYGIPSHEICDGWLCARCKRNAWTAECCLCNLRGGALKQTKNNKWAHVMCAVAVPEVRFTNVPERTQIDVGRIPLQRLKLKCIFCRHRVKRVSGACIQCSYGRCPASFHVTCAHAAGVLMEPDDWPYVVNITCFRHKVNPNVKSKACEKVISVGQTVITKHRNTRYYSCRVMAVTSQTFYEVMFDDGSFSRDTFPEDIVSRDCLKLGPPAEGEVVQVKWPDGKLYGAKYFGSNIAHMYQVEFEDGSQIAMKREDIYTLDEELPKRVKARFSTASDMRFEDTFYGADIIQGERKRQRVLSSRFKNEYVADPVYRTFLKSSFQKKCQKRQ
Procedure: as §1, §2
Peptides used in all experiments were purchased from Anaspe. Full length of KDM5B and KDM4C protein were purchased from Active Motif: KDM5B (cat#31832) and KDM4C (Cat #31858). Final concentration of KDM5B and KDM4C used in the assay were 0.5 nM and 0.2 nM. Final concentration of peptides for 5B and 4C used in the assay were 3 nM.
as §3, with “AlphaScreen assays was conducted as following protocol: buffer used to make compound plate or DMSO is composed of 50 mM HEPES pH 7.4, 0.003% Tween-20; buffer used to dilute enzyme is composed of 50 mM HEPES pH 7.4, 0.003% Tween-20, 0.01% BSA, 500 μM TCEP; and buffer used to dilute the substrate is composed of 50 mM HEPES pH 7.4, 0.003% Tween-20, (NH4)2Fe(SO4)2 15 μM, alpha-ketoglutaric acid 4 μM and L-ascorbic acid 100 μM. 4 μL” for “4 μL”

[1] = AlphaScreen, full length KDM5B 0.5 nM, biotinylated H3K4Me3 peptide 3 nM, 25 minutes at room temperature, read-out: KDM5B (IC50)

T1 sequence (Q9UGL1 whole entry): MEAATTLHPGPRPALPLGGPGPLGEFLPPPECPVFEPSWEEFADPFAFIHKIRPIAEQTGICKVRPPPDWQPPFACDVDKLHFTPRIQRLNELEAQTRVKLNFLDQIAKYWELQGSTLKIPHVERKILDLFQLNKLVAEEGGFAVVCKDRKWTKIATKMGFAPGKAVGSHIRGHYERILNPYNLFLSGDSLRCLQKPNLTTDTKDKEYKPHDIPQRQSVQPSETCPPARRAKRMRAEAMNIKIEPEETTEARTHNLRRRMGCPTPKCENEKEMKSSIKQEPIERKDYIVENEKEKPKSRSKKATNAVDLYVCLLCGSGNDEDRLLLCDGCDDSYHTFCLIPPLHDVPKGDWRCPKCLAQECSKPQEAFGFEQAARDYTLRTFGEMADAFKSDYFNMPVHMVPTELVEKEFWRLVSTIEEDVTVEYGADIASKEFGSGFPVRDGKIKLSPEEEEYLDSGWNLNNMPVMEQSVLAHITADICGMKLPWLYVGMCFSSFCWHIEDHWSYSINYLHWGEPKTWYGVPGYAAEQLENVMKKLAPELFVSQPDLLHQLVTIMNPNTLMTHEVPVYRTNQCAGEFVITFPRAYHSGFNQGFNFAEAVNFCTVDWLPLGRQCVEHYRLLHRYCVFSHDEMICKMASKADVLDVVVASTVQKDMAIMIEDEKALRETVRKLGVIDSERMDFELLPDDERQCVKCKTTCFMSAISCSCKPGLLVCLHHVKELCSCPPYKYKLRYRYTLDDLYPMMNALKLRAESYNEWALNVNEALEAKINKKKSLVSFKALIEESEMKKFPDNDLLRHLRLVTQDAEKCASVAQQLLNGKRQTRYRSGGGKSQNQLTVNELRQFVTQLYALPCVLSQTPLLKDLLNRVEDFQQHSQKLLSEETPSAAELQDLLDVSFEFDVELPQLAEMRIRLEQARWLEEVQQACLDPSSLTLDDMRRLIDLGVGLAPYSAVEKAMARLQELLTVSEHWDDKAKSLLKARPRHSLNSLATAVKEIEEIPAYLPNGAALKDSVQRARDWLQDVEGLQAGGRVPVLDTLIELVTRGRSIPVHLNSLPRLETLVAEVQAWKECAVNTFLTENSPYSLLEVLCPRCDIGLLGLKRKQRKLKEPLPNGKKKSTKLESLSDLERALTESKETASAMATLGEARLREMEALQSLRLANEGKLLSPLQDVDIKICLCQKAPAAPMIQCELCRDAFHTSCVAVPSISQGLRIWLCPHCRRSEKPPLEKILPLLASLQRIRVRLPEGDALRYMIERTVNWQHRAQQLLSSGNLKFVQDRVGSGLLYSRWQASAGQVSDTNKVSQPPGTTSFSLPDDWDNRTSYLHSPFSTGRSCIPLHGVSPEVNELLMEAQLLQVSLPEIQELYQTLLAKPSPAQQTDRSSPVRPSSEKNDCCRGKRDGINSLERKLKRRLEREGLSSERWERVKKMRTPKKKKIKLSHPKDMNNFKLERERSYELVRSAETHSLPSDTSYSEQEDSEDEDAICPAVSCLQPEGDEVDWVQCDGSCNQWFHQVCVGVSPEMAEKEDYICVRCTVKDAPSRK

Structure (SMILES)	IC50 (KDM5B; [1]) [nM]	IC50 (KDM4C) [nM]	IC50 (KDM5B) [nM]
CC(C)c1c(O)nc(-n2ccnc2)nc1-c1cnn(C2CCC2)c1 [Example 49, 6-(1-Cyclobutyl-1H-pyrazol-4-yl)-2-(1H 1H-imidazol-1-yl)-5-(propan-2-yl)pyrimidin-4-ol]		716	13
COCCn1cc(-c2nc(-n3ccnc3)nc(O)c2C(C)C)cn1 [Example 51, 2-(1H-Imidazol-1-yl)-6-[1-(2-methoxyethyl)-1H-pyrazol-4-yl]-5-(propan-2-yl)pyrimidin-4-ol]		1960	14
CC(C)c1c(O)nc(-n2ccnc2)nc1-c1cnn(CC2CC2)c1 [Example 52, 6-[1-(Cyclopropylmethyl)-1H-pyrazol-4-yl]-2-(1H-imidazol-1-yl)-5-(propan-2-yl)pyrimidin-4-ol]		840	14
CC(C)c1c(O)nc(-n2ccnc2)nc1-c1cnn(Cc2ccncc2)c1 [Example 53, 2-(1H-Imidazol-1-yl)-5-(propan-2-yl)-6-[1-(pyridin-4-ylmethyl)-1H-pyrazol-4-yl]-pyrimidin-4-ol]		1740	15
CCCn1cc(-c2nc(-n3ccnc3)nc(O)c2C(C)C)cn1 [Example 56, 2-(1H-Imidazol-1-yl)-5-(propan-2-yl)-6-(1-propyl-1H-pyrazol-4-yl)pyrimidin-4-ol]		996	15
CC(C)c1c(O)nc(-n2ccnc2)nc1-c1cnn(C2CCOCC2)c1 [Example 59, 2-(1H-Imidazol-1-yl)-6-[1-(oxan-4-yl)-1H-pyrazol-4-yl]-5-(propan-2-yl)pyrimidin-4-ol]		746	16
Cc1n[nH]cc1-c1nc(-n2ccnc2)nc(O)c1C(C)C [Example 60, 2-(1H-Imidazol-1-yl)-6-(5-methyl-1H-pyrazol-4-yl)-5-(propan-2-yl)pyrimidin-4-ol]	17	1660	
CC(C)c1c(O)nc(-n2ccnc2)nc1-c1cnn(Cc2ccccc2)c1 [Example 63, 6-(1-Benzyl-1H-pyrazol-4-yl)-2-(1H-imidazol-1-yl)-5-(propan-2-yl)pyrimidin-4-ol]		1540	18
CC(C)c1c(O)nc(-n2ccnc2)nc1-c1cnn(Cc2ccccn2)c1 [Example 64, 2-(1H-Imidazol-1-yl)-5-(propan-2-yl)-6-[1-(pyridin-2-ylmethyl)-1H-pyrazol-4-yl]-pyrimidin-4-ol]	19	2010	
CC(C)Cn1cc(-c2nc(-n3ccnc3)nc(O)c2C(C)C)cn1 [Example 65, 2-(1H-Imidazol-1-yl)-6-[1-(2-methylpropyl)-1H-pyrazol-4-yl]-5-(propan-2-yl)pyrimidin-4-ol]		937	19
CC(C)c1c(O)nc(-n2ccnc2)nc1-c1cnn(C2CCCC2)c1 [Example 67, 6-(1-Cyclopentyl-1H-pyrazol-4-yl)-2-(1H-imidazol-1-yl)-5-(propan-2-yl)pyrimidin-4-ol]		1340	19
CC(C)c1c(O)nc(-n2ccnc2)nc1-c1cnn(CCN2CCOCC2)c1 [Example 68, 2-(1H-Imidazol-1-yl)-6-{1-[2-(morpholin-4-yl)ethyl]-1H-pyrazol-4-yl}-5-(propan-2-yl)pyrimidin-4-ol]		2450	21
CC(C)c1c(O)nc(-n2ccnc2)nc1-c1cnn(-c2ccccc2)c1 [Example 71, 2-(1H-Imidazol-1-yl)-6-(1-phenyl-1H-pyrazol-4-yl)-5-(propan-2-yl)pyrimidin-4-ol]		1560	24
CC(C)CCn1cc(-c2nc(-n3ccnc3)nc(O)c2C(C)C)cn1 [Example 73, 2-(1H-Imidazol-1-yl)-6-[1-(3-methylbutyl)-1H-pyrazol-4-yl]-5-(propan-2-yl)pyrimidin-4-ol]		1350	25

Now from value to compound:

IC50 (KDM5B; [1]) [nM]	IC50 (KDM4C) [nM]	IC50 (KDM5B) [nM]	Structure (SMILES)
13	1260		CC(C)c1c(O)nc(-n2ccnc2)nc1-c1ccc(CNS(C)(=O)=O)cc1 [Example 48, N-({4-[6-Hydroxy-2-(1H-imidazol-1-yl)-5-(propan-2-yl)pyrimidin-4-yl]phenyl}-methyl)methanesulfonamide]
	896	15	Cc1ccc(-c2nc(-n3ccnc3)nc(O)c2C(C)C)cc1N [Example 54, 6-(3-Amino-4-methylphenyl)-2-(1H-imidazol-1-yl)-5-(propan-2-yl)pyrimidin-4-ol]
	1340	15	CC(C)c1c(O)nc(-n2ccnc2)nc1-c1cnn(C)c1 [Example 55, 2-(1H-Imidazol-1-yl)-6-(1-methyl-1H-pyrazol-4-yl)-5-(propan-2-yl)pyrimidin-4-ol]
	2030	16	CNC(=O)c1cccc(-c2nc(-n3ccnc3)nc(O)c2C(C)C)c1 [Example 57, 3-[6-Hydroxy-2-(1H-imidazol-1-yl)-5-(propan-2-yl)pyrimidin-4-yl]-N-methyl-benzamide]
	1220	16	CC(C)c1c(O)nc(-n2ccnc2)nc1-c1ccc(CO)cc1 [Example 58, 6-[4-(Hydroxymethyl)-phenyl]-2-(1H-imidazol-1-yl)-5-(propan-2-yl)pyrimidin-4-ol]
17	1480		CC(C)c1c(O)nc(-n2ccnc2)nc1-c1ccc(S(=O)(=O)N(C)C)cc1 [Example 61, 4-[6-Hydroxy-2-(1H-imidazol-1-yl)-5-(propan-2-yl)pyrimidin-4-yl]-N,N-dimethylbenzene-1-sulfonamide]
	1180	19	CCn1cc(-c2nc(-n3ccnc3)nc(O)c2C(C)C)cn1 [Example 66, 6-(1-Ethyl-1H-pyrazol-4-yl)-2-(1H-imidazol-1-yl)-5-(propan-2-yl)pyrimidin-4-ol]
	2060	22	CC(C)c1c(O)nc(-n2ccnc2)nc1-c1ccc(S(C)(=O)=O)cc1 [Example 69, 2-(1H-Imidazol-1-yl)-6-(4-methanesulfonylphenyl)-5-(propan-2-yl)pyrimidin-4-ol]
	2660	22	CC(C)c1c(O)nc(-n2ccnc2)nc1-c1cccnc1 [Example 70, 2-(1H-Imidazol-1-yl)-5-(propan-2-yl)-6-(pyridin-3-yl)pyrimidin-4-ol]
24	4470		CC(C)c1c(O)nc(-n2ccnc2)nc1-c1cccc(S(C)(=O)=O)c1 [Example 72, 2-(1H-Imidazol-1-yl)-6-(3-methanesulfonylphenyl)-5-(propan-2-yl)pyrimidin-4-ol]
